How the values were obtained:
[1] = compound: C1CC(C1)(C(=O)[O-])C(=O)[O-].N.N.[Pt+2] [Carboplatin]; conditions: max 10 µM
Outline: (§1)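 Cancer cell lines were dosed for 72 hours (final DMSO typically 0.2%) after 24 hours at 37°C and 5% CO2 in 1536-well plates containing 7.5 μl DMEM/F12 or RPMI with 10% FBS. Viability came from CellTiter-Glo 2.0 luminescence, scaled between blank-well and DMSO-well means, and dose responses were fitted to a two-parameter logistic curve with a non-linear mixed effects model. The single-agent IC50 was obtained from this fit.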

[2] = compound: C1CN(CCC1(C(=O)N[C@@H](CCO)C2=CC=C(C=C2)Cl)N)C3=NC=NC4=C3C=CN4 [AZD5363]; conditions: max 10 µM
Outline: as §1

[3] = compound: C=CCn1c(=O)c2cnc(Nc3ccc(N4CCN(C)CC4)cc3)nc2n1-c1cccc(C(C)(C)O)n1 [AZD1775]; conditions: max 3 µM
Outline: as §1

[4] = compound: CC(=O)Nc1cccc(-n2c(=O)n(C3CC3)c(=O)c3c(Nc4ccc(I)cc4F)n(C)c(=O)c(C)c32)c1 [Trametinib]; conditions: max 1 µM
Outline: as §1

[5] = compound: CC(=O)O[C@H]1C(=O)[C@@]2(C)[C@H]([C@H](OC(=O)c3ccccc3)[C@]3(O)C[C@H](OC(=O)[C@H](O)[C@@H](NC(=O)c4ccccc4)c4ccccc4)C(C)=C1C3(C)C)[C@]1(OC(C)=O)CO[C@@H]1C[C@@H]2O [Paclitaxel]; conditions: max 3 µM
Outline: as §1

[6] = compound: CC(=O)c1c(C)c2cnc(Nc3ccc(N4CCNCC4)cn3)nc2n(C2CCCC2)c1=O [Palbociclib]; conditions: max 10 µM
Outline: as §1

[7] = compound: CC(C)n1c(=O)n(C)c2cnc3cc(F)c(-c4ccc(OCCCN5CCCCC5)nc4)cc3c21 [AZD1390]; conditions: max 0.3 µM
Outline: as §1

[8] = compound: CC1(C)CCC(CN2CCN(c3ccc(C(=O)NS(=O)(=O)c4ccc(NCC5CCOCC5)c([N+](=O)[O-])c4)c(Oc4cnc5[nH]ccc5c4)c3)CC2)=C(c2ccc(Cl)cc2)C1 [Venetoclax]; conditions: max 1 µM
Outline: as §1

[9] = compound: CC1=C(C(=CC=C1)Cl)NC(=O)C2=CN=C(S2)NC3=CC(=NC(=N3)C)N4CCN(CC4)CCO [Dasatinib]; conditions: max 2 µM
Outline: as §1

[10] = compound: CC1=CN2[C@@H](C1)C=NC3=CC(=C(C=C3C2=O)OC)OCCCCCOC4=C(C=C5C(=C4)N=C[C@@H]6CC(=CN6C5=O)C)OC [SG3199]; conditions: max 0.001 µM
Outline: as §1

[11] = compound: CCN(CCO)CCCOc1ccc2c(Nc3cc(CC(=O)Nc4cccc(F)c4)[nH]n3)ncnc2c1 [AZD2811]; conditions: max 1 µM
Outline: as §1

[12] = compound: CCc1c2c(nc3ccc(O)cc13)-c1cc3c(c(=O)n1C2)COC(=O)[C@]3(O)CC [SN-38]; conditions: max 0.3 µM
Outline: as §1

[13] = compound: CN(C)CCCOc1ccc(-c2ccc3ncc4c(c3c2)n(C2CCOCC2)c(=O)n4C)cn1 [AZD0156]; conditions: max 3 µM
Outline: as §1

[14] = compound: CN(CC[C@H](CSC1=CC=CC=C1)NC2=C(C=C(C=C2)S(=O)(=O)NC(=O)C3=CC=C(C=C3)N4CCC(CC4)[C@H](C5=CC=CC=C5C6=CC=C(C=C6)Cl)O)S(=O)(=O)C(F)(F)F)CCO [AZD4320]; conditions: max 1 µM
Outline: as §1

[15] = compound: COc1cc(Nc2ncc3c(n2)-c2ccc(Cl)cc2C(c2c(F)cccc2OC)=NC3)ccc1C(=O)O [Alisertib]; conditions: max 10 µM
Outline: as §1

[16] = compound: COc1cc([C@@H]2c3cc4c(cc3[C@@H](O[C@@H]3O[C@@H]5CO[C@@H](C)O[C@H]5[C@H](O)[C@H]3O)[C@H]3COC(=O)[C@H]23)OCO4)cc(OC)c1O [Etoposide]; conditions: max 10 µM
Outline: as §1

[17] = compound: COc1cc2ncnc(Nc3ccc(F)c(Cl)c3)c2cc1OCCCN1CCOCC1 [Gefitinib]; conditions: max 10 µM
Outline: as §1

[18] = compound: COc1cccc(OCCCN)c1-c1cc(Nc2cnc(C#N)cn2)n[nH]1 [Prexasertib]; conditions: max 1 µM
Outline: as §1

[19] = compound: COc1cccc2c1C(=O)c1c(O)c3c(c(O)c1C2=O)C[C@@](O)(C(=O)CO)C[C@@H]3O[C@H]1C[C@H](N)[C@H](O)[C@H](C)O1 [Doxorubicin]; conditions: max 1 µM
Outline: as §1

[20] = compound: COc1nnc2ccc(N3CCC(c4ccc(OCCN5CCN(C)C(=O)[C@H]5C)cc4)CC3)nn12 [AZD5153]; conditions: max 1 µM
Outline: as §1

[21] = compound: CS(=O)(=O)CCNCc1ccc(-c2ccc3ncnc(Nc4ccc(OCc5cccc(F)c5)c(Cl)c4)c3c2)o1 [Lapatinib]; conditions: max 10 µM
Outline: as §1

[22] = compound: C[C@@H](Nc1cc(F)cc(F)c1)c1cc(C(=O)N(C)C)cc2c(=O)cc(N3CCOCC3)oc12 [AZD8186]; conditions: max 10 µM
Outline: as §1

[23] = compound: C[C@@H](Oc1cc(-c2cnn(C3CCNCC3)c2)cnc1N)c1c(Cl)ccc(F)c1Cl [Crizotinib]; conditions: max 10 µM
Outline: as §1

[24] = compound: C[C@@H](c1ccc2nccn2c1)n1nnc2ncc(-c3cnn(C)c3)nc21 [Savolitinib]; conditions: max 1 µM
Outline: as §1

[25] = compound: C[C@@H]1COCCN1C2=NC(=NC(=C2)C3(CC3)[S@](=N)(=O)C)C4=C5C=CNC5=NC=C4 [AZD6738]; conditions: max 10 µM
Outline: as §1

[26] = compound: Cc1c2c(nn1C)CSCc1cc(n(C)n1)CSc1cc(c3ccccc3c1)OCCCc1c(C(=O)O)n(C)c3c-2c(Cl)ccc13 [AZD5991]; conditions: max 1 µM
Outline: as §1

[27] = compound: Cc1cc2ncnn2cc1Nc1ncc2c(n1)n(C1CCOCC1)c(=O)n2C [AZD7648]; conditions: max 10 µM
Outline: as §1

[28] = compound: Cc1nc(-c2cn3c(n2)-c2ccc(-c4cnn(C(C)(C)C(N)=O)c4)cc2OCC3)n(C(C)C)n1 [Taselisib]; conditions: max 10 µM
Outline: as §1

[29] = compound: Cn1cnc2c(F)c(Nc3ccc(Br)cc3Cl)c(C(=O)NOCCO)cc21 [Selumetinib]; conditions: max 10 µM
Outline: as §1

[30] = compound: N#Cc1cnc(Nc2cc(NC[C@H]3CNCCO3)c(C(F)(F)F)cn2)cn1 [SRA737]; conditions: max 10 µM
Outline: as §1

[31] = compound: NC1(c2ccc(-c3nc4ccn5c(=O)[nH]nc5c4cc3-c3ccccc3)cc2)CCC1 [MK-2206]; conditions: max 10 µM
Outline: as §1

[32] = compound: Nc1ccn([C@@H]2O[C@H](CO)[C@@H](O)C2(F)F)c(=O)n1 [Gemcitabine]; conditions: max 0.3 µM
Outline: as §1

[33] = compound: O=C(Nc1ccc2[nH]nc(-c3ccncc3)c2c1)[C@@H]1CCN(CC(=O)N2CCN(c3ccc(-c4ncccn4)cc3)CC2)C1; conditions: max 5 µM
Outline: as §1

[34] = compound: O=C(c1cc(Cc2n[nH]c(=O)c3ccccc23)ccc1F)N1CCN(C(=O)C2CC2)CC1 [Olaparib]; conditions: max 10 µM
Outline: as §1

[35] = compound: O=c1[nH]cc(F)c(=O)[nH]1 [5-Fluorouracil]; conditions: max 20 µM
Outline: as §1

| Cell Line | IC50, cell viability 72 h [1] | IC50, cell viability 72 h [2] | IC50, cell viability 72 h [3] | IC50, cell viability 72 h [4] | IC50, cell viability 72 h [5] | IC50, cell viability 72 h [6] | IC50, cell viability 72 h [7] | IC50, cell viability 72 h [8] | IC50, cell viability 72 h [9] | IC50, cell viability 72 h [10] | IC50, cell viability 72 h [11] | IC50, cell viability 72 h [12] | IC50, cell viability 72 h [13] | IC50, cell viability 72 h [14] | IC50, cell viability 72 h [15] | IC50, cell viability 72 h [16] | IC50, cell viability 72 h [17] | IC50, cell viability 72 h [18] | IC50, cell viability 72 h [19] | IC50, cell viability 72 h [20] | IC50, cell viability 72 h [21] | IC50, cell viability 72 h [22] | IC50, cell viability 72 h [23] | IC50, cell viability 72 h [24] | IC50, cell viability 72 h [25] | IC50, cell viability 72 h [26] | IC50, cell viability 72 h [27] | IC50, cell viability 72 h [28] | IC50, cell viability 72 h [29] | IC50, cell viability 72 h [30] | IC50, cell viability 72 h [31] | IC50, cell viability 72 h [32] | IC50, cell viability 72 h [33] | IC50, cell viability 72 h [34] | IC50, cell viability 72 h [35] |
| --- | --- | --- | --- | --- | --- | --- | --- | --- | --- | --- | --- | --- | --- | --- | --- | --- | --- | --- | --- | --- | --- | --- | --- | --- | --- | --- | --- | --- | --- | --- | --- | --- | --- | --- | --- |
| NB10 (Neuroblastoma) | > 10000 nM | > 10000 nM | 892 nM | 328 nM | 273 nM | > 10000 nM | > 300 nM | > 1000 nM | > 2000 nM | > 1 nM | > 1000 nM | 6.51 nM | > 3000 nM | > 1000 nM | 56.6 nM | 1950 nM | > 10000 nM | 92 nM | 528 nM | 664 nM | > 10000 nM | > 10000 nM | 3740 nM | > 1000 nM | 5830 nM | > 1000 nM | > 10000 nM | 6730 nM | > 10000 nM | > 10000 nM | > 10000 nM | 87.1 nM | 3880 nM | > 10000 nM | 18400 nM |
| NCI-H2085 (Non-Small Cell Lung Carcinoma) | > 10000 nM | > 10000 nM | 3000 nM | > 1000 nM | 382 nM | > 10000 nM | > 300 nM | > 1000 nM | 152 nM | > 1 nM | > 1000 nM | > 300 nM | > 3000 nM | > 1000 nM | 8070 nM | > 10000 nM | > 10000 nM | 67.3 nM | > 1000 nM | > 1000 nM | > 10000 nM | 3580 nM | > 10000 nM | > 1000 nM | > 10000 nM | > 1000 nM | > 10000 nM | > 10000 nM | > 10000 nM | > 10000 nM | > 10000 nM | > 300 nM | > 5000 nM | > 10000 nM | > 20000 nM |

— the supplement of paper PMC11061612
